The target of test [1] is T1, β-catenin/Tcf protein-protein interaction (Homo sapiens, UniProt P35222).
T1 construct: Wild-type β-catenin (residues 138-781) were cloned into a pET-28b vector; 6×histidine (C); made in house; host or cells: E. coli BL21 DE3
T1 sequence (P35222 138-781): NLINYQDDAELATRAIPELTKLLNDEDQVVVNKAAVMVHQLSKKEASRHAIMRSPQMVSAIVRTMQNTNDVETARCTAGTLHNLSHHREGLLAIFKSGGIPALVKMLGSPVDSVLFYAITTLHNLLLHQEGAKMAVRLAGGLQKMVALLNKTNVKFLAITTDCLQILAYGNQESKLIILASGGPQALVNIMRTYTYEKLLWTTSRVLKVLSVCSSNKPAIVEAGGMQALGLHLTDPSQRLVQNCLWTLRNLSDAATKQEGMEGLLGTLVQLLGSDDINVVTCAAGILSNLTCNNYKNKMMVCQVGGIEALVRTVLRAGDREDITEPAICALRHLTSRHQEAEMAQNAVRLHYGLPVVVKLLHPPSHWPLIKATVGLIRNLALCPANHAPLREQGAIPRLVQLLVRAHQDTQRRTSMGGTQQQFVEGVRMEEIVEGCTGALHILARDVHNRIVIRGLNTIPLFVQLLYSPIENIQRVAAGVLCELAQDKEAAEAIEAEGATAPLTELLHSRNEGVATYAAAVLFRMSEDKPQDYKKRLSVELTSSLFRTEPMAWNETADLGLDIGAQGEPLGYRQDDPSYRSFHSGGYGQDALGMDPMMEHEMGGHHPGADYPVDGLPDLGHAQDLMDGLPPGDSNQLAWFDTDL
Put plainly: FP competitive inhibition assay. Format: binding. A digest of the protocol: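 His-tagged human β-catenin (residues 138-781, E. coli-expressed) at 10 nM with 2.5 nM fluorescein-labeled Tcf4 (7-51) in PBS-type buffer with bovine γ-globulin and 0.01% Triton X-100. Compounds added, 1.5 h at 4 °C, 1% DMSO, before fluorescence polarization read. IC50 by nonlinear fit; Ki derived from IC50.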

The next test concerns SW480 cells. As to the kind of experiment: MTS cell viability assay, SW480. To be noted: mean ± SD (n = 3). Format: cell-based. As to the method:
(§1) MTS Cell Viability Assay. Colorectal cancer cells (SW480 and HCT116), TNBC cells (MDA-MB-231, MDA-MB-468, and BT-20), and lung cancer A549 cells were seeded in 96-well plates at 5×10^3 cells/well, maintained overnight at 37° C., and incubated with the tested compounds at various concentrations. Cell viability was monitored after 72 h using a freshly prepared mixture of 1 part phenazine methosulfate (PMS, Sigma) solution (0.92 mg/mL) and 19 parts 3-(4,5-dimethylthiazol-2-yl)-5-(3-carboxymethoxyphenyl)-2-(4-sulfophenyl)-2H-tetrazolium (MTS, Promega) solution (2 mg/mL). Cells were incubated in 10 μL of this solution at 37° C. for 3 h, and A490 was measured. The effect of each compound is expressed as the concentration required to reduce A490 by 50% (IC50) relative to DMSO-treated cells. Experiments were performed in triplicate.
For orientation: Tetrazolium assays rely on reduction of a dye to a coloured formazan, in cell work by metabolically active cells.

For another test, the system named is A549 cells. As to the kind of experiment: MTS cell viability assay, A549. It is filed as cell-based. To be noted: Homo sapiens, 72 h, mean ± SD (n = 3), Table 4, read-out: MTS cell viability IC50, Wnt normal A549. How it is done: as §1
In test [2] the test system is Wnt/β-catenin transactivation. As to the kind of experiment: Wnt-responsive TOPFlash luciferase reporter assay, β-catenin-activated HEK cells. It is filed as cell-based. The following applies: HEK293, read-out: TOPFlash IC50 ± SD, β-catenin-activated HEK293, 24 h treatment, mean ± SD (n = 3), read-out: TOPFlash IC50 ± SD, β-catenin-activated HEK239. As to the method: Cell Transfection and Luciferase Assay. FuGENE 6 (E2962, Promega) in the 96-well plate format was used for the transfection of HEK293 cells according to the manufacturer's instructions. HEK293 cells were co-transfected with 45 ng of the TOPFlash or FOPFlash reporter gene, and 135 ng of pcDNA3.1-β-catenin. Cells were cultured in DMEM and 10% fatal bovine serum (FBS) at 37° C. for 24 h, and different concentrations of inhibitors were then added. After 24 h, the luciferase reporter activity was measured using the Dual-Glo system (E2940, Promega). Normalized luciferase activity in response to the treatment with the inhibitors was compared with that obtained from the cells treated with DMSO. Experiments were performed in triplicate.

In test [3] the test system is Wnt/β-catenin transactivation. Put plainly: Wnt-responsive TOPFlash luciferase reporter assay, SW480. Format: cell-based. To be noted: Homo sapiens, mean ± SD (n = 3), Table 6.
For a further test, the system named is HCT116 cells. As to the kind of experiment: MTS cell viability assay, HCT116. The following applies: Homo sapiens, HCT-116; 72 h; mean ± SD (n = 3); Table 5; read-out: MTS cell viability IC50, Wnt hyperactive cancer cells HCT116. Format: cell-based. How it is done: as §1
Where [4] appears, read: Assay 1, mean ± SD (n = 3), read-out: Ki ± SD, Assay 1.
Setting [5] is: Homo sapiens, SW480, 72 h, Table 4, read-out: MTS cell viability IC50, Wnt hyperactive SW480 Cells (converted).
Setting [6] is: Assay 2, mean ± SD (n = 3), read-out: Ki ± SD, Assay 2.
Setting [7] is: Assay 3, mean ± SD (n = 3), read-out: Ki ± SD, Assay 3.
Setting [8] is: Homo sapiens, SW480, 72 h, Table 5, read-out: MTS cell viability IC50, Wnt hyperactive cancer cells SW480.

Structures are written as SMILES. Where two headings read alike, the source gives them in different places.

Broadly, the Ki is the dissociation constant of the complex between target and ligand, obtained from inhibition or displacement. The IC50 is the concentration that gives 50% inhibition.

Regarding `COC(=O)c1ccc2c(c1)c(CCc1ccc(Cl)cc1)c(CCc1nc3cc(OC)ccc3s1)n2CCc1nn[nH]n1` [Compound 35, Methyl 1-(2-(2H-tetrazol-5-yl)ethyl)-3-(4-chlorophenethyl)-2-(2-(5-methoxybenzo[d]thiazol-2-yl)ethyl)-1H-indole-5-carboxylate], the Ki in test [1] (setting [4]) turned out to be 4.1 ± 1.1 µM. Besides, the IC50 is 3.2 µM with SW480 cells (72 h, Table 4, read-out: MTS cell viability IC50, Wnt hyperactive SW480 Cells (converted)); 3.1 ± 1.8 µM in the test with SW480 cells (setting [5]); 13 ± 5.9 µM in the test on A549 cells; 11 ± 2.3 µM in test [2] (Table 6); 4.3 ± 1.2 µM in test [3].
Regarding `O=C(NCc1ccc(F)cc1)c1ccc2c(c1)c(CCc1ccc(F)cc1)c(CCc1nc3ccccc3s1)n2CCc1nn[nH]n1` [Compound 44, 1-(2-(2H-tetrazol-5-yl)ethyl)-2-(2-(benzo[d]thiazol-2-yl)ethyl)-N-(4-fluorobenzyl)-3-(4-fluoro-phenethyl)-1H-indole-5-carboxamide], the Ki in test [1] (setting [4]) was found to be 1.6 ± 0.37 µM; in test [1] (setting [6]), 0.35 ± 0.15 µM; in test [1] (setting [7]), 1.3 ± 0.37 µM; in test [1] (Assay 4, mean ± SD (n = 3), read-out: Ki ± SD, Assay 4) it was 0.92 ± 0.06 µM. Besides, the IC50 with SW480 cells (setting [5]) is 12 ± 1.4 µM; with A549 cells, 42 ± 5.8 µM; in test [2] (Table 6), 42 ± 5.8 µM; in test [3], 12 ± 1.3 µM.
For `Cc1ccc(CCc2c(-c3ccsc3)n(CCc3nn[nH]n3)c3ccc(C(=O)NOC4CCCCO4)cc23)cc1` (centres unmarked) [Compound 92, 1-(2-(2H-tetrazol-5-yl)ethyl)-3-(4-methylphenethyl)-N-((tetrahydro-2H-pyran-2-yl)oxy)-2-(thiophen-3-yl)-1H-indole-5-carboxamide], the Ki in test [1] (setting [4]) was found to be 10 ± 1.6 µM. In addition, the IC50 in the test on SW480 cells (setting [8]) came to 81 ± 17 µM; in test [2] (Table 7) it was 50 ± 5.7 µM.
On to `Cc1ccc(CCc2c(-c3csc(C(F)F)c3)n(CCc3nn[nH]n3)c3ccc(C(=O)NCc4ccon4)cc23)cc1` [Compound 94, 1-(2-(2H-tetrazol-5-yl)ethyl)-2-(5-(difluoromethyl)thiophen-3-yl)-N-(isoxazol-3-ylmethyl)-3-(4-methylphenethyl)-1H-indole-5-carboxamide], for which the Ki worked out at 2.7 ± 0.26 µM in test [1] (setting [4]), 4.9 ± 0.36 µM in test [1] (setting [6]) and 26 ± 2.7 µM in test [1] (setting [7]). Also, the IC50 came to 32 ± 3.6 µM in the test on SW480 cells (setting [8]), 46 ± 5.3 µM in the test with HCT116 cells and 9.9 ± 1.5 µM in test [2] (Table 7).

These data come from patent publication US11530186B2, “Inhibitors for the β-catenin / T-cell factor protein-protein interaction” (H. LEE MOFFITT CANCER CENTER AND RESEARCH INSTITUTE, INC., priority 2018, dated 2022).
